How the values were obtained:
Assay in all cases: relative viability (nuclei count vs DMSO), 5 days (fraction); higher = more cells survive
[1] = compound: C1/C(=C\C2=CC=CS2)/C(=O)/C(=C/C3=CC=CS3)/C1 + N=C(N)NC(=N)NCCc1ccccc1 [Phenformin] (partner 250 µM)
Outline: (§1)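 Lung cancer cell lines, seeded in 1536-well plates, were treated the following day by pin tool with a single drug or with five library-drug doses (not always all listed) in √10 steps on top of a fixed anchor-drug dose. Cells were fixed and nuclei stained in one step after 5 days, and nuclei were counted. Relative viability is the nuclei count for treated wells divided by that for vehicle wells, reported as medians of duplicate plates.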

[2] = compound: C1=CC(=CC=C1C2=CC(=C(S2)NC(=O)N)C(=O)N)F [TPCA-1] + CC(=O)Nc1cccc(-n2c(=O)n(C3CC3)c(=O)c3c(Nc4ccc(I)cc4F)n(C)c(=O)c(C)c32)c1 [Trametinib] (partner 0.02 µM)
Outline: as §1

[3] = compound: C1/C(=C\C2=CC=CS2)/C(=O)/C(=C/C3=CC=CS3)/C1 + CC1(C)CCC(c2ccc(Cl)cc2)=C(CN2CCN(c3ccc(C(=O)NS(=O)(=O)c4ccc(N[C@H](CCN5CCOCC5)CSc5ccccc5)c(S(=O)(=O)C(F)(F)F)c4)cc3)CC2)C1 [Navitoclax] (partner 0.5 µM)
Outline: as §1

[4] = compound: C1=CC(=CC=C1C2=CC(=C(S2)NC(=O)N)C(=O)N)F [TPCA-1] + CCNC(=O)c1noc(-c2cc(C(C)C)c(O)cc2O)c1-c1ccc(CN2CCOCC2)cc1 [Luminespib] (partner 0.01 µM)
Outline: as §1

Work on LK-2 yielded a relative viability ([1]; first compound 0.2 µM) of 0.576, a relative viability ([1]; first compound 0.6325 µM) of 0.505 and a relative viability ([1]; first compound 2 µM) of 0.622. It also gave a relative viability ([1]; first compound 6.325 µM) of 0.379, a relative viability ([1]; first compound 20 µM) of 0.483 and a relative viability ([2]; first compound 0.04 µM) of 0.76. For the same cell line, the relative viability ([2]; first compound 0.1265 µM) was 0.535, the relative viability ([2]; first compound 0.4 µM) was 0.873 and the relative viability ([2]; first compound 1.265 µM) was 0.659. It also gave a relative viability ([2]; first compound 4 µM) of 0.504, a relative viability ([3]; first compound 0.2 µM) of 0.824 and a relative viability ([3]; first compound 0.6325 µM) of 0.956. It also gave a relative viability ([3]; first compound 2 µM) of 0.702, a relative viability ([3]; first compound 6.325 µM) of 0.862 and a relative viability ([3]; first compound 20 µM) of 0.89. It also gave a relative viability ([4]; first compound 0.04 µM) of 0.216, a relative viability ([4]; first compound 0.1265 µM) of 0.188 and a relative viability ([4]; first compound 0.4 µM) of 0.216. It also gave a relative viability ([4]; first compound 1.265 µM) of 0.175 and a relative viability ([4]; first compound 4 µM) of 0.167.
With HCC-15 the relative viability ([1]; first compound 0.2 µM) was 0.516, the relative viability ([1]; first compound 0.6325 µM) was 0.467 and the relative viability ([1]; first compound 2 µM) was 0.545. The relative viability ([1]; first compound 6.325 µM) was 0.445, the relative viability ([1]; first compound 20 µM) was 0.442 and the relative viability ([2]; first compound 0.04 µM) was 0.402. For the same cell line, the relative viability ([2]; first compound 0.1265 µM) was 0.372, the relative viability ([2]; first compound 0.4 µM) was 0.347 and the relative viability ([2]; first compound 1.265 µM) was 0.346. It also gave a relative viability ([2]; first compound 4 µM) of 0.311, a relative viability ([3]; first compound 0.2 µM) of 0.696 and a relative viability ([3]; first compound 0.6325 µM) of 0.676. It also gave a relative viability ([3]; first compound 2 µM) of 0.682, a relative viability ([3]; first compound 6.325 µM) of 0.621 and a relative viability ([3]; first compound 20 µM) of 0.615. The relative viability ([4]; first compound 0.04 µM) was 0.458, the relative viability ([4]; first compound 0.1265 µM) was 0.326 and the relative viability ([4]; first compound 0.4 µM) was 0.341. For the same cell line, the relative viability ([4]; first compound 1.265 µM) was 0.366 and the relative viability ([4]; first compound 4 µM) was 0.374.
Work on NCI-H727 yielded a relative viability ([1]; first compound 0.2 µM) of 0.64, a relative viability ([1]; first compound 0.6325 µM) of 0.642 and a relative viability ([1]; first compound 2 µM) of 0.671. It also gave a relative viability ([1]; first compound 6.325 µM) of 0.525, a relative viability ([1]; first compound 20 µM) of 0.494 and a relative viability ([2]; first compound 0.04 µM) of 0.393. The relative viability ([2]; first compound 0.1265 µM) was 0.361, the relative viability ([2]; first compound 0.4 µM) was 0.442 and the relative viability ([2]; first compound 1.265 µM) was 0.421. The relative viability ([2]; first compound 4 µM) was 0.357, the relative viability ([3]; first compound 0.2 µM) was 0.528 and the relative viability ([3]; first compound 0.6325 µM) was 0.426. It also gave a relative viability ([3]; first compound 2 µM) of 0.503, a relative viability ([3]; first compound 6.325 µM) of 0.302 and a relative viability ([3]; first compound 20 µM) of 0.391. It also gave a relative viability ([4]; first compound 0.04 µM) of 0.531, a relative viability ([4]; first compound 0.1265 µM) of 0.453 and a relative viability ([4]; first compound 0.4 µM) of 0.439. The relative viability ([4]; first compound 1.265 µM) was 0.487 and the relative viability ([4]; first compound 4 µM) was 0.432.
In the case of HOP-62, the relative viability ([1]; first compound 0.2 µM) is reported as 0.686, the relative viability ([1]; first compound 0.6325 µM) is reported as 0.714 and the relative viability ([1]; first compound 2 µM) is reported as 0.531. The relative viability ([1]; first compound 6.325 µM) was 0.664, the relative viability ([1]; first compound 20 µM) was 0.672 and the relative viability ([2]; first compound 0.04 µM) was 0.407. It also gave a relative viability ([2]; first compound 0.1265 µM) of 0.373, a relative viability ([2]; first compound 0.4 µM) of 0.418 and a relative viability ([2]; first compound 1.265 µM) of 0.47. For the same cell line, the relative viability ([2]; first compound 4 µM) was 0.366, the relative viability ([3]; first compound 0.2 µM) was 0.985 and the relative viability ([3]; first compound 0.6325 µM) was 1.23. It also gave a relative viability ([3]; first compound 2 µM) of 0.8, a relative viability ([3]; first compound 6.325 µM) of 0.952 and a relative viability ([3]; first compound 20 µM) of 1.06. The relative viability ([4]; first compound 0.04 µM) was 0.98, the relative viability ([4]; first compound 0.1265 µM) was 0.924 and the relative viability ([4]; first compound 0.4 µM) was 0.93. The relative viability ([4]; first compound 1.265 µM) was 0.893 and the relative viability ([4]; first compound 4 µM) was 0.812.
NCI-H3122 showed a relative viability ([1]; first compound 0.2 µM) of 0.442, a relative viability ([1]; first compound 0.6325 µM) of 0.377 and a relative viability ([1]; first compound 2 µM) of 0.41. The relative viability ([1]; first compound 6.325 µM) was 0.307, the relative viability ([1]; first compound 20 µM) was 0.333 and the relative viability ([2]; first compound 0.04 µM) was 0.228. It also gave a relative viability ([2]; first compound 0.1265 µM) of 0.177, a relative viability ([2]; first compound 0.4 µM) of 0.228 and a relative viability ([2]; first compound 1.265 µM) of 0.243. For the same cell line, the relative viability ([2]; first compound 4 µM) was 0.215, the relative viability ([3]; first compound 0.2 µM) was 1.02 and the relative viability ([3]; first compound 0.6325 µM) was 1.02. For the same cell line, the relative viability ([3]; first compound 2 µM) was 1.02, the relative viability ([3]; first compound 6.325 µM) was 1.01 and the relative viability ([3]; first compound 20 µM) was 1.02. For the same cell line, the relative viability ([4]; first compound 0.04 µM) was 0.106, the relative viability ([4]; first compound 0.1265 µM) was 0.0887 and the relative viability ([4]; first compound 0.4 µM) was 0.0804. For the same cell line, the relative viability ([4]; first compound 1.265 µM) was 0.0762 and the relative viability ([4]; first compound 4 µM) was 0.0832.
With NCI-H1395 the relative viability ([1]; first compound 0.2 µM) was 0.448, the relative viability ([1]; first compound 0.6325 µM) was 0.484 and the relative viability ([1]; first compound 2 µM) was 0.505. The relative viability ([1]; first compound 6.325 µM) was 0.483, the relative viability ([1]; first compound 20 µM) was 0.465 and the relative viability ([2]; first compound 0.04 µM) was 1.23. It also gave a relative viability ([2]; first compound 0.1265 µM) of 0.939, a relative viability ([2]; first compound 0.4 µM) of 1.11 and a relative viability ([2]; first compound 1.265 µM) of 1.05. The relative viability ([2]; first compound 4 µM) was 0.884, the relative viability ([3]; first compound 0.2 µM) was 1.28 and the relative viability ([3]; first compound 0.6325 µM) was 1.65. The relative viability ([3]; first compound 2 µM) was 1.23, the relative viability ([3]; first compound 6.325 µM) was 1.04 and the relative viability ([3]; first compound 20 µM) was 1.15. The relative viability ([4]; first compound 0.04 µM) was 0.762, the relative viability ([4]; first compound 0.1265 µM) was 0.695 and the relative viability ([4]; first compound 0.4 µM) was 0.647. The relative viability ([4]; first compound 1.265 µM) was 0.709 and the relative viability ([4]; first compound 4 µM) was 0.644.
For NCI-H647, the relative viability ([1]; first compound 0.2 µM) was 0.55, the relative viability ([1]; first compound 0.6325 µM) was 0.505 and the relative viability ([1]; first compound 2 µM) was 0.579. It also gave a relative viability ([1]; first compound 6.325 µM) of 0.474, a relative viability ([1]; first compound 20 µM) of 0.485 and a relative viability ([2]; first compound 0.04 µM) of 0.553. The relative viability ([2]; first compound 0.1265 µM) was 0.444, the relative viability ([2]; first compound 0.4 µM) was 0.47 and the relative viability ([2]; first compound 1.265 µM) was 0.382. For the same cell line, the relative viability ([2]; first compound 4 µM) was 0.277, the relative viability ([3]; first compound 0.2 µM) was 1.15 and the relative viability ([3]; first compound 0.6325 µM) was 1.15. For the same cell line, the relative viability ([3]; first compound 2 µM) was 1.1, the relative viability ([3]; first compound 6.325 µM) was 1.01 and the relative viability ([3]; first compound 20 µM) was 1.17. For the same cell line, the relative viability ([4]; first compound 0.04 µM) was 0.149, the relative viability ([4]; first compound 0.1265 µM) was 0.192 and the relative viability ([4]; first compound 0.4 µM) was 0.157. The relative viability ([4]; first compound 1.265 µM) was 0.102 and the relative viability ([4]; first compound 4 µM) was 0.134.
EKVX showed a relative viability ([1]; first compound 0.2 µM) of 0.252, a relative viability ([1]; first compound 0.6325 µM) of 0.247 and a relative viability ([1]; first compound 2 µM) of 0.218. For the same cell line, the relative viability ([1]; first compound 6.325 µM) was 0.231, the relative viability ([1]; first compound 20 µM) was 0.249 and the relative viability ([2]; first compound 0.04 µM) was 0.507. It also gave a relative viability ([2]; first compound 0.4 µM) of 0.376, a relative viability ([2]; first compound 1.265 µM) of 0.216 and a relative viability ([2]; first compound 4 µM) of 0.313. The relative viability ([3]; first compound 0.2 µM) was 0.999, the relative viability ([3]; first compound 0.6325 µM) was 0.87 and the relative viability ([3]; first compound 2 µM) was 0.916. The relative viability ([3]; first compound 6.325 µM) was 0.912, the relative viability ([3]; first compound 20 µM) was 0.919 and the relative viability ([4]; first compound 0.04 µM) was 0.885. For the same cell line, the relative viability ([4]; first compound 0.1265 µM) was 0.845, the relative viability ([4]; first compound 0.4 µM) was 0.933 and the relative viability ([4]; first compound 1.265 µM) was 0.756. The relative viability ([4]; first compound 4 µM) was 0.809.
